Values quoted from earlier work, collected in patent US20210379090A1, “REMDESIVIR ORAL DELIVERY SYSTEM” (ABON PHARMACEUTICALS, LLC, priority 2020, published 2021).

Assays:
COVID-19 = settings: received early within 10 days of symptom onset vs treated late after more than 10 days of symptoms
[1] = would likely result in almost complete first-pass clearance after oral delivery

## Remdesivir
COVID-19
  clinical outcome: improved outcomes
[1]
  hepatic stability: poor hepatic stability
other
  solubility in water: practically insoluble
